Strand notation (5' to 3'): a small letter for the sugar, then the base; units joined by * are phosphorothioate-linked, units joined directly phosphodiester-linked; [ ] holds rarer units or linkages, { } end groups; capitals alone tell only the bases. e = 2'-O-(2-methoxyethyl) (MOE); [5mC] = 5-methylcytosine; d = 2'-deoxy (DNA)
Legend:
human SMAD7 mRNA [1] = assay: Dose-dependent inhibition of human SMAD7 mRNA expression in Hep3B cells (Example 3, Study 1 and 2); format: cell-based; details: electroporation; for % inhibition of SMAD7 mRNA expression: approximately 16 hours; for IC50: Study 1 (312.5-20000 nM)
Method in brief: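 Hep3B cells, 20,000 per well, electroporated with antisense oligonucleotide at 0.31, 1.25, 5.00 or 20.00 μM (first series) or 0.74, 2.22, 6.67 or 20.00 μM (second series). After ~16 h, SMAD7 mRNA measured by RT-qPCR (RTS5062), normalised to RIBOGREEN total RNA. Percent inhibition vs untreated cells; IC50 derived.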

human SMAD7 mRNA [2] = assay: Antisense inhibition of human SMAD7 mRNA expression in Hep3B cells by 5-10-5 MOE gapmers, single concentration, electroporation, RT-PCR (Example 1, Study 1 and 2); format: cell-based; details: for % Inhibition of SMAD7 mRNA: electroporation with 15,000 nM antisense oligonucleotide (Study 2)
Method in brief: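 Readout is percent SMAD7 mRNA inhibition versus untreated cells, measured by qRT-PCR (RTS5062) and corrected for total RNA by RIBOGREEN. Oligonucleotide, 5,000 nM or 15,000 nM, was delivered by electroporation into Hep3B cells at 20,000 per well. RNA was collected about 24 h later.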

[3] = 312.5 nM, Study 1, relative to untreated control cells
[4] = electroporation, 15,000 nM antisense oligonucleotide (Study 2), 5-10-5 MOE gapmers targeting SEQ ID NO: 1 and 2
[5] = 5-10-5 MOE gapmers targeting SEQ ID NO: 1 and 2
[6] = electroporation, 15,000 nM, approximately 24 hours, relative to untreated control cells, gapmers targeting SEQ ID NO: 1 and 2
[7] = Study 2, electroporation with 15,000 nM antisense oligonucleotide, 5-10-5 MOE gapmers targeting SEQ ID NO: 1 and 2
[8] = electroporation, 5,000 nM, approximately 24 hours, relative to untreated control cells, gapmers targeting SEQ ID NO: 1 and 2

Row | Substance | % inhibition of SMAD7 mRNA expression (human SMAD7 mRNA [1]; [3]) [%] | % inhibition of SMAD7 mRNA expression (human SMAD7 mRNA [1]; 1250.0 nM, Study 1) [%] | % inhibition of SMAD7 mRNA expression (human SMAD7 mRNA [1]; 5000.0 nM, Study 1) [%] | % inhibition of SMAD7 mRNA expression (human SMAD7 mRNA [1]; 20000.0 nM, Study 1) [%] | IC50 (human SMAD7 mRNA [1]) [µM] | % inhibition of SMAD7 mRNA expression (human SMAD7 mRNA [2]; [4]) [%] | % Inhibition of SMAD7 mRNA (human SMAD7 mRNA [2]; [5]) [%] | % inhibition of SMAD7 mRNA expression (human SMAD7 mRNA [2]; [6]) [%] | % inhibition of SMAD7 mRNA expression (human SMAD7 mRNA [2]; [7]) [%] | % Inhibition (human SMAD7 mRNA [2]; [7]) [%] | % inhibition of SMAD7 mRNA expression (human SMAD7 mRNA [2]; [8]) [%]
1 | 771825 (antisense e[5mC]*eT*e[5mC]*eT*e[5mC]*dA*dT*dT*dT*d[5mC]*dT*dG*dG*dA*dA*e[5mC]*e[5mC]*e[5mC]*eA*e[5mC]) [compound 771825] | 15 | 29 | 17 | 66 | 15 | 76 | – | – | – | – | –
2 | 771776 (antisense e[5mC]*eT*e[5mC]*eA*eG*d[5mC]*dA*dA*dG*d[5mC]*dT*d[5mC]*dA*dG*dT*eT*e[5mC]*e[5mC]*eT*eG) [compound 771776] | 10 | 13 | 36 | 67 | 9 | 38 | 54 | – | – | – | –
3 | 771403 (antisense eG*eA*eA*e[5mC]*eA*dT*dG*dA*d[5mC]*d[5mC]*dT*d[5mC]*d[5mC]*dG*d[5mC]*eA*e[5mC]*eA*e[5mC]*e[5mC]) [compound 771403] | 5 | 4 | 25 | 35 | > 20 | 62 | – | – | – | – | –
4 | 771821 (antisense eG*eT*eT*e[5mC]*e[5mC]*dT*dT*dA*dT*dA*dG*dA*dT*dT*dA*eT*e[5mC]*e[5mC]*eA*eA) [compound 771821] | 0 | 9 | 27 | 46 | > 20 | – | – | 60 | – | – | –
5 | 771663 (antisense eT*eT*e[5mC]*e[5mC]*eA*dA*dT*dG*dA*dG*dA*dA*dT*dG*d[5mC]*eT*eT*e[5mC]*eT*e[5mC]) [compound 771663] | 10 | 24 | 43 | 56 | 11 | – | – | – | 56 | – | –
6 | 771742 (antisense eA*eG*eA*e[5mC]*eA*dG*dA*dT*d[5mC]*dT*d[5mC]*dT*dG*dA*dA*eG*eT*e[5mC]*eA*eG) [compound 771742] | 0 | 0 | 0 | 23 | > 20 | – | – | – | – | 44 | –
7 | 771487 (antisense e[5mC]*eT*eG*e[5mC]*eA*d[5mC]*dG*dG*dT*dA*dA*dA*dG*d[5mC]*d[5mC]*e[5mC]*eG*eT*e[5mC]*e[5mC]) [compound 771487] | 4 | 0 | 7 | 26 | > 20 | – | – | – | 45 | – | –
8 | 771556 (antisense e[5mC]*e[5mC]*e[5mC]*eT*eT*d[5mC]*dA*dT*dA*d[5mC]*dA*d[5mC]*dT*dG*dT*eG*eT*eT*eT*eG) [compound 771556] | 1 | 0 | 9 | 33 | > 20 | – | – | – | 30 | – | –
9 | 771552 (antisense e[5mC]*eT*eT*eG*eG*dA*dT*dT*dT*d[5mC]*dT*dG*d[5mC]*dT*dT*e[5mC]*e[5mC]*e[5mC]*e[5mC]*eT) [compound 771552] | 2 | 25 | 20 | 45 | > 20 | 28 | 53 | – | – | – | –
10 | 771769 (antisense eG*eG*e[5mC]*eT*eG*dG*dG*dA*dA*dT*d[5mC]*dA*dG*dA*dA*e[5mC]*eT*eT*eG*eG) [compound 771769] | 10 | 0 | 3 | 53 | > 20 | 71 | – | – | – | – | –
11 | 771581 (antisense eG*eG*eG*eA*e[5mC]*d[5mC]*d[5mC]*d[5mC]*dA*dG*d[5mC]*d[5mC]*dG*d[5mC]*d[5mC]*eA*eG*e[5mC]*eT*eT) [compound 771581] | 0 | 0 | 9 | 65 | 19 | – | – | 58 | – | – | –
12 | 771795 (antisense e[5mC]*eG*eT*e[5mC]*eT*dG*d[5mC]*dG*dG*d[5mC]*dA*dA*dA*dA*d[5mC]*e[5mC]*e[5mC]*eA*e[5mC]*e[5mC]) [compound 771795] | 9 | 22 | 51 | 58 | 8 | – | – | – | – | 59 | 53
13 | 771733 (antisense eT*eG*eA*e[5mC]*eA*dG*d[5mC]*d[5mC]*dA*d[5mC]*dA*dA*dG*dT*d[5mC]*eA*e[5mC]*eA*eA*e[5mC]) [compound 771733] | 0 | 0 | 26 | 61 | 16 | – | – | 75 | – | – | –
14 | 771891 (antisense e[5mC]*eT*e[5mC]*e[5mC]*e[5mC]*dA*dA*dG*d[5mC]*d[5mC]*dT*dA*d[5mC]*dA*dT*eA*eT*eT*eT*e[5mC]) [compound 771891] | 0 | 0 | 10 | 33 | > 20 | – | – | – | – | 56 | 65
15 | 771815 (antisense e[5mC]*eT*e[5mC]*e[5mC]*e[5mC]*dT*dT*dT*dT*d[5mC]*dA*d[5mC]*dT*dG*d[5mC]*eT*e[5mC]*e[5mC]*eA*e[5mC]) [compound 771815] | 0 | 0 | 22 | 46 | > 20 | – | – | – | – | 70 | –
16 | 771399 (antisense eG*e[5mC]*e[5mC]*e[5mC]*eG*dG*dG*d[5mC]*dA*dG*dG*dA*dG*d[5mC]*dG*eG*e[5mC]*eG*eG*e[5mC]) [compound 771399] | 0 | 6 | 26 | 53 | > 20 | – | – | – | – | 33 | –
17 | 771444 (eA*eG*e[5mC]*e[5mC]*eT*d[5mC]*dT*dT*dG*dA*d[5mC]*dT*dT*d[5mC]*d[5mC]*eG*eA*eG*eG*eA; antisense) [compound 771444] | 0 | 0 | 9 | 29 | > 20 | – | – | – | – | 67 | 65
18 | 771777 (antisense e[5mC]*e[5mC]*e[5mC]*eT*e[5mC]*dA*dG*dT*d[5mC]*dT*d[5mC]*dA*dG*dA*dT*eA*eA*e[5mC]*eA*eG) [compound 771777] | 0 | 0 | 27 | 50 | 8 | 50 | – | – | – | – | –
19 | 771464 (antisense eG*eA*eG*eA*eG*dG*dG*d[5mC]*dT*d[5mC]*d[5mC]*dT*dG*dG*dA*e[5mC]*eA*e[5mC]*eA*eG) [compound 771464] | 11 | 8 | 21 | 50 | > 20 | – | – | – | – | 55 | –
20 | 771461 (antisense eG*eT*eA*eG*eA*dG*d[5mC]*d[5mC]*dT*d[5mC]*d[5mC]*d[5mC]*d[5mC]*dA*d[5mC]*eT*e[5mC]*eT*e[5mC]*eG) [compound 771461] | 0 | 2 | 11 | 39 | > 20 | – | – | – | – | 37 | –
21 | 771572 (antisense e[5mC]*eT*eT*eG*eG*dG*dA*d[5mC]*dT*dG*d[5mC]*dA*dA*dA*d[5mC]*e[5mC]*eT*e[5mC]*eT*e[5mC]) [compound 771572] | 0 | 10 | 38 | 13 | > 20 | – | – | – | 37 | – | –
